Laboratory results as given in patent US20090311217A1, “3-SUBSTITUTED-1H-INDOLE COMPOUNDS, THEIR USE AS MTOR KINASE AND PI3 KINASE INHIBITORS, AND THEIR SYNTHESES” (priority 2008, published 2009).

How the values were obtained:
[1] = molecular target: PI3K-alpha (Homo sapiens, UniProt P42336); assay: PI3K-alpha fluorescence polarization assay; assay type: biochemical; conditions: read-out: PI3Kα Avg. IC50
[2] = molecular target: PI3K-gamma (Homo sapiens, UniProt P48736); assay: PI3K-gamma fluorescence polarization assay; assay type: biochemical; conditions: PI3Kγ Avg. IC50
Chain of PI3K-gamma (P48736 whole entry, species assumed, the tested form may be a part, canonical isoform): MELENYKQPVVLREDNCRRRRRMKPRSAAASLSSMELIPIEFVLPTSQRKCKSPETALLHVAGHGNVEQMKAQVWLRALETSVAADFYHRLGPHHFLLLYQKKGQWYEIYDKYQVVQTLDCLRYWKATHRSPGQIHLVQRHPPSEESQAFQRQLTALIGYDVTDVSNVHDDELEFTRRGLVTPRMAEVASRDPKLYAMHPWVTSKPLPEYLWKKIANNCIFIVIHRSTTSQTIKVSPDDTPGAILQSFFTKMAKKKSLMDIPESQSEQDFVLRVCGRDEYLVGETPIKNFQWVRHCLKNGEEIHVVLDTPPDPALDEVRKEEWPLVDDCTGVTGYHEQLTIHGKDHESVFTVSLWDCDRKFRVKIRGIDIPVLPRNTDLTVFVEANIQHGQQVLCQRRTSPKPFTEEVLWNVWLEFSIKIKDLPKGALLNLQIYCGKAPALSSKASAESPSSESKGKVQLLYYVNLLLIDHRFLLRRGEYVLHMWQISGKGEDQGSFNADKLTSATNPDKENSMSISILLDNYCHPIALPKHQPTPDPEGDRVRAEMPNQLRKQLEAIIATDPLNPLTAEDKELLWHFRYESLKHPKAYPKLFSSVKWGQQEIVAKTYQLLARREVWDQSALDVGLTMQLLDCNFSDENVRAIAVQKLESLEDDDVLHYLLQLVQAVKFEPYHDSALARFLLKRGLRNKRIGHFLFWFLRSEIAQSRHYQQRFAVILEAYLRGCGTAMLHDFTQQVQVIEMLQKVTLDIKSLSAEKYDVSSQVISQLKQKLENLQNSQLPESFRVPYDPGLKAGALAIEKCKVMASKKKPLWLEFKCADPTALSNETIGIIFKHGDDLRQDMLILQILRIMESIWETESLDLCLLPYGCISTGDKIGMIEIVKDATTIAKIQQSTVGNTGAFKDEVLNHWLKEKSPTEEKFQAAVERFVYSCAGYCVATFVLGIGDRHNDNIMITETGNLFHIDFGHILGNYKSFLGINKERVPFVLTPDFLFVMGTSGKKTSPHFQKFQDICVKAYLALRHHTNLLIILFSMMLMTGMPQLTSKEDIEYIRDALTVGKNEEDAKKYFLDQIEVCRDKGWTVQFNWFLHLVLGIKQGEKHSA
Method in brief: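 Each isoform (5 ng) phosphorylated 2.5 μM diC8-PI(4,5)P2 at 25 μM ATP for one hour at 25° C in the presence of inhibitor. Reactions were then stopped with EDTA, and product was detected by fluorescence polarization using a GST-GRP1 PH domain and a BODIPY-TMR-labelled IP4 tracer.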

Chain of PI3K-alpha (P42336 whole entry, species assumed): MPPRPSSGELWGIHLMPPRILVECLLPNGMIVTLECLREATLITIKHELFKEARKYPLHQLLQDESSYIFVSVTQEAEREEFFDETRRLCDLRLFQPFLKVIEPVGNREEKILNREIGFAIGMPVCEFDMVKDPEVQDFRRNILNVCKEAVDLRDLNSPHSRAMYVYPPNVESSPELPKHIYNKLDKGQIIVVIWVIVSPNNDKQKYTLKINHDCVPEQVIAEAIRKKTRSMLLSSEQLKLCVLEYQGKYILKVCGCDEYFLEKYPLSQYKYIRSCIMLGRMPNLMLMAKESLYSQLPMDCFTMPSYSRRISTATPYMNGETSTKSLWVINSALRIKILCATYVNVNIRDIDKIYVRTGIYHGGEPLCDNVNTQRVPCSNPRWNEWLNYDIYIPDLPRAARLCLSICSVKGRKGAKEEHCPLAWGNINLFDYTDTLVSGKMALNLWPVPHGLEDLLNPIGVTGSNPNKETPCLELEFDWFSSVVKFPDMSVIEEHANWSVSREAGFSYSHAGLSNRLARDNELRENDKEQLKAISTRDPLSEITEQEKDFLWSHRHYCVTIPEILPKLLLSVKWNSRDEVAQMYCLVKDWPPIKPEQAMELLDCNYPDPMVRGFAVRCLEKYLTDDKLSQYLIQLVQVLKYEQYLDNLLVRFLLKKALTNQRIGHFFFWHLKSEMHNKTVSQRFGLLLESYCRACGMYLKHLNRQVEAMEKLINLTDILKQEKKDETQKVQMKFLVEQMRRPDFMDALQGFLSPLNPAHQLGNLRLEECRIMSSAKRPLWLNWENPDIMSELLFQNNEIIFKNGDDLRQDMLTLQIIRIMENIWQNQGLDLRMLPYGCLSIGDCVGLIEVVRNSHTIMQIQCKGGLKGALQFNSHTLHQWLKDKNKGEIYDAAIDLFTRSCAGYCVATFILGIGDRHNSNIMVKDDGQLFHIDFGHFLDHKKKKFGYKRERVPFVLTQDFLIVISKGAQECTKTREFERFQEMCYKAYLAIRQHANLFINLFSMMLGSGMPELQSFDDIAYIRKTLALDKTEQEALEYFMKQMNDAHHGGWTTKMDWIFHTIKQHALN
Chain of PI3K-alpha (P27986 whole entry partner, species assumed): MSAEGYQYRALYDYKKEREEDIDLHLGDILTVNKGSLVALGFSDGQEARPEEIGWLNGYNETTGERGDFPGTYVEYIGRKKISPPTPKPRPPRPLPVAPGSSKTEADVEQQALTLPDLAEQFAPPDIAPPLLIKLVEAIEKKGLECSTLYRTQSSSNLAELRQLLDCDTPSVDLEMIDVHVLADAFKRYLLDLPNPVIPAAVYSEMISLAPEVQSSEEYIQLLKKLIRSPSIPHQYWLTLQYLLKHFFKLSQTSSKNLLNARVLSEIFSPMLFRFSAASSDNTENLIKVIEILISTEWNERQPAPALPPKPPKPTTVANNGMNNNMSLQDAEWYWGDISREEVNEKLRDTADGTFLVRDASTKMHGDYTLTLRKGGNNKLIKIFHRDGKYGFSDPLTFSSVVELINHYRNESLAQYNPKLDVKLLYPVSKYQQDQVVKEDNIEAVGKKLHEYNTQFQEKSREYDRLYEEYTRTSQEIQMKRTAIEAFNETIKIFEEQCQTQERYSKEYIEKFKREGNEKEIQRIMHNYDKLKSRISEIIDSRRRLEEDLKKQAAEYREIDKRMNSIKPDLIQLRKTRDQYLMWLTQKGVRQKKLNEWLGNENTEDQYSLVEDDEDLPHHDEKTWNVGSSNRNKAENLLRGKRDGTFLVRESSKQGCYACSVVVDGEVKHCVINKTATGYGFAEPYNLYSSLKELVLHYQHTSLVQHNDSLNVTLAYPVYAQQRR

Compound	IC50 [1] [µM]	IC50 [2] [µM]
CNC(=O)Nc1ccc2c(c1)C(=O)/C(=C/c1cn(CCCN3CCCCC3)c3ccc(OC)cc13)O2 [Compound 578, 1-[(2Z)-2-{[5-methoxy-1-(3-piperidin-1-ylpropyl)-1H-indol-3-yl]methylene}-3-oxo-2,3-dihydro-1-benzofuran-5-yl]-3-methylurea]	0.038	2.18
CNC(=O)Nc1ccc2c(c1)C(=O)/C(=C/c1cn(CCCN3CCOCC3)c3ccc(OC)cc13)O2 [Compound 580, 1-[(2Z)-2-{[5-methoxy-1-(3-morpholin-4-ylpropyl)-1H-indol-3-yl]methylene}-3-oxo-2,3-dihydro-1-benzofuran-5-yl]-3-methylurea]	0.053	1.36
CNC(=O)Nc1ccc2c(c1)C(=O)/C(=C/c1c(-c3c(C)noc3C)[nH]c3ccc(OC)cc13)O2 [Compound 581, 1-[(2Z)-2-{[2-(3,5-dimethylisoxazol-4-yl)-5-methoxy-1H-indol-3-yl]methylene}-3-oxo-2,3-dihydro-1-benzofuran-5-yl]-3-methylurea]	0.002	0.0265
CNC(=O)Nc1ccc2c(c1)C(=O)/C(=C/c1c[nH]c3c(CCCN4CCN(C)CC4)cc(OC)cc13)O2 [Compound 583, 1-[(2Z)-2-({5-methoxy-7-[3-(4-methylpiperazin-1-yl)propyl]-1H-indol-3-yl}methylene)-3-oxo-2,3-dihydro-1-benzofuran-5-yl]-3-methylurea]	0.222	6.49
CNCCNC(=O)Nc1ccc2c(c1)C(=O)/C(=C/c1c(C3CCCCC3)n(CCN3CCN(C)CC3)c3ccc(OC)cc13)O2 [Compound 584, 1-[(2Z)-2-({2-cyclohexyl-5-methoxy-1-[2-(4-methylpiperazin-1-yl)ethyl]-1H-indol-3-yl}methylene)-3-oxo-2,3-dihydro-1-benzofuran-5-yl]-3-[2-(methylamino)ethyl]urea]	0.0011	0.026
CNC(=O)Nc1ccc2c(c1)C(=O)/C(=C/c1c(C)n(CCCN3CCN(C)CC3)c3ccc(OC)cc13)O2 [Compound 586, 1-[(2Z)-2-({5-methoxy-2-methyl-1-[3-(4-methylpiperazin-1-yl)propyl]-1H-indol-3-yl}methylene)-3-oxo-2,3-dihydro-1-benzofuran-5-yl]-3-methylurea]	0.0035	1.01
CNC(=O)Nc1ccc2c(c1)C(=O)/C(=C/c1c(C)n(CCCN3CCC(O)C3)c3ccc(OC)cc13)O2 (stereo not shown) [Compound 589, 1-[(2Z)-2-({1-[3-(3-hydroxypyrrolidin-1-yl)propyl]-5-methoxy-2-methyl-1H-indol-3-yl}methylene)-3-oxo-2,3-dihydro-1-benzofuran-5-yl]-3-methylurea]	0.0045	0.967
CNC(=O)Nc1ccc2c(c1)C(=O)/C(=C/c1c(-c3ccncc3)n(CCN3CCN(C)CC3)c3ccc(OC)cc13)O2 [Compound 590, 1-[(2Z)-2-({5-methoxy-1-[2-(4-methylpiperazin-1-yl)ethyl]-2-pyridin-4-yl-1Hindol-3-yl}methylene)-3-oxo-2,3-dihydro-1-benzofuran-5-yl]-3-methylurea]	0.00367	1.02
CNC(=O)Nc1ccc2c(c1)C(=O)/C(=C/c1c(-c3nc(C(C)C)no3)[nH]c3ccc(OC)cc13)O2 [Compound 591, 1-[(2Z)-2-{[2-(3-isopropyl-1,2,4-oxadiazol-5-yl)-5-methoxy-1H-indol-3-yl]methylene}-3-oxo-2,3-dihydro-1-benzofuran-5-yl]-3-methylurea]	0.008	9.5
CNC(=O)Nc1ccc2c(c1)C(=O)/C(=C/c1c(-c3nc(C4CC4)no3)[nH]c3ccc(OC)cc13)O2 [Compound 592, 1-[(2Z)-2-{[2-(3-cyclopropyl-1,2,4-oxadiazol-5-yl)-5-methoxy-1H-indol-3-yl]methylene}-3-oxo-2,3-dihydro-1-benzofuran-5-yl]-3-methylurea]	0.0055	8.9
CCCc1noc(-c2[nH]c3ccc(OC)cc3c2/C=C2\Oc3ccc(NC(=O)NC)cc3C2=O)n1 [Compound 593, 1-[(2Z)-2-{[5-methoxy-2-(3-propyl-1,2,4-oxadiazol-5-yl)-1H-indol-3-yl]methylene}-3-oxo-2,3-dihydro-1-benzofuran-5-yl]-3-methylurea]	0.0125	0.776
CNC(=O)Nc1ccc2c(c1)C(=O)/C(=C/c1c[nH]c3c(C#N)cc(OC)cc13)O2 [Compound 595, 1-{(2Z)-2-[(7-cyano-5-methoxy-1H-indol-3-yl)methylene]-3-oxo-2,3-dihydro-1-benzofuran-5-yl}-3-methylurea]	0.222	1.53
CNC(=O)Nc1ccc2c(c1)C(=O)/C(=C/c1c(-c3cccnc3)n(CCN3CCN(C)CC3)c3ccc(OC)cc13)O2 [Compound 596, 1-[(2Z)-2-({5-methoxy-1-[2-(4-methylpiperazin-1-yl)ethyl]-2-pyridin-3-yl-1Hindol-3-yl}methylene)-3-oxo-2,3-dihydro-1-benzofuran-5-yl]-3-methylurea]	0.0017	0.279
CNC(=O)Nc1ccc2c(c1)C(=O)/C(=C/c1c(C)n(CCCN3CCN(CCO)CC3)c3ccc(OC)cc13)O2 [Compound 599, 1-{(2Z)-2-[(1-{3-[4-(2-hydroxyethyl)piperazin-1-yl]propyl}-5-methoxy-2-methyl-1H-indol-3-yl)methylidene]-3-oxo-2,3-dihydro-1-benzofuran-5-yl}-3-methylurea]	0.01	0.95
CNC(=O)Nc1ccc2c(c1)C(=O)/C(=C/c1c(C(=O)N(C)C)[nH]c3ccc(OC)cc13)O2 [Compound 600, 5-methoxy-N,N-dimethyl-3-[(Z)-{5-[(methylcarbamoyl)amino]-3-oxo-1-benzofuran-2(3H)-ylidene}methyl]-1H-indole-2-carboxamide]	0.024	0.129
CNC(=O)Nc1ccc2c(c1)C(=O)/C(=C/c1c(C(=O)N3CCN(C)CC3)[nH]c3ccc(OC)cc13)O2 [Compound 601, 1-[(2Z)-2-({5-methoxy-2-[(4-methylpiperazin-1-yl)carbonyl]-1H-indol-3-yl}methylidene)-3-oxo-2,3-dihydro-1-benzofuran-5-yl]-3-methylurea]	0.008	0.077
CNC(=O)Nc1ccc2c(c1)C(=O)/C(=C/c1c(C(=O)N(C)CCN(C)C)[nH]c3ccc(OC)cc13)O2 [Compound 602, N-[2-(dimethylamino)ethyl]-5-methoxy-N-methyl-3-[(Z)-{5-[(methylcarbamoyl)amino]-3-oxo-1-benzofuran-2(3H)-ylidene}methyl]-1H-indole-2-carboxamide]	0.0405	0.316

Continued by falling IC50 [1], values first:

IC50 [1] [µM]	IC50 [2] [µM]	Compound
0.183	3.57	COc1cc(/C=C/CN2CCN(C)CC2)c2c(c1)c(/C=C1\Oc3cc(O)ccc3C1=O)cn2C [Compound 582, (2Z)-6-hydroxy-2-({5-methoxy-1-methyl-7-[(1E)-3-(4-methylpiperazin-1-yl)prop-1-en-1-yl]-1H-indol-3-yl}methylene)-1-benzofuran-3(2H)-one]
0.0735	2.2	CNC(=O)Nc1ccc2c(c1)C(=O)/C(=C/c1c[nH]c3c(/C=C/CN4CCN(C)CC4)cc(OC)cc13)O2 [Compound 594, 1-[(2Z)-2-({5-methoxy-7-[(1E)-3-(4-methylpiperazin-1-yl)prop-1-en-1-yl]-1Hindol-3-yl}methylene)-3-oxo-2,3-dihydro-1-benzofuran-5-yl]-3-methylurea]
0.0307	0.417	CNC(=O)Nc1ccc2c(c1)C(=O)/C(=C/c1c(C)n(CCCn3ccnc3)c3ccc(OC)cc13)O2 [Compound 598, 1-[(2Z)-2-({1-[3-(1H-imidazol-1-yl)propyl]-5-methoxy-2-methyl-1H-indol-3-yl}methylidene)-3-oxo-2,3-dihydro-1-benzofuran-5-yl]-3-methylurea]
0.03	0.129	CNC(=O)Nc1ccc2c(c1)C(=O)/C(=C/c1cn(CCCC#N)c3ccc(OC)cc13)O2 [Compound 579, 1-[(2Z)-2-{[1-(3-cyanopropyl)-5-methoxy-1H-indol-3-yl]methylene}-3-oxo-2,3-dihydro-1-benzofuran-5-yl]-3-methylurea]
0.011	0.138	CNC(=O)Nc1ccc2c(c1)C(=O)/C(=C/c1c(C)n(CCCN3CCOCC3)c3ccc(OC)cc13)O2 [Compound 585, 1-[(2Z)-2-{[5-methoxy-2-methyl-1-(3-morpholin-4-ylpropyl)-1H-indol-3-yl]methylene}-3-oxo-2,3-dihydro-1-benzofuran-5-yl]-3-methylurea]
0.004	0.982	CNC(=O)Nc1ccc2c(c1)C(=O)/C(=C/c1c(C)n(CCCN3CCC(O)CC3)c3ccc(OC)cc13)O2 [Compound 587, 1-[(2Z)-2-({1-[3-(4-hydroxypiperidin-1-yl)propyl]-5-methoxy-2-methyl-1H-indol-3-yl}methylene)-3-oxo-2,3-dihydro-1-benzofuran-5-yl]-3-methylurea]
0.0035	0.83	CNC(=O)Nc1ccc2c(c1)C(=O)/C(=C/c1c(C)n(CCCN3CCCCC3)c3ccc(OC)cc13)O2 [Compound 588, 1-[(2Z)-2-{[5-methoxy-2-methyl-1-(3-piperidin-1-ylpropyl)-1H-indol-3-yl]methylene}-3-oxo-2,3-dihydro-1-benzofuran-5-yl]-3-methylurea]
0.0035	0.448	CNC(=O)Nc1ccc2c(c1)C(=O)/C(=C/c1c(C)n(CCCN3CCCC3)c3ccc(OC)cc13)O2 [Compound 597, 1-[(2Z)-2-{[5-methoxy-2-methyl-1-(3-pyrrolidin-1-ylpropyl)-1H-indol-3-yl]methylidene}-3-oxo-2,3-dihydro-1-benzofuran-5-yl]-3-methylurea]
0.0011	0.145	COc1ccc2c(c1)c(/C=C1\Oc3ccc(NC(=O)NCCN)cc3C1=O)c(C1CCCC1)n2CCN1CCN(C)CC1 [Compound 577, 1-(2-aminoethyl)-3-[(2Z)-2-({2-cyclopentyl-5-methoxy-1-[2-(4-methylpiperazin-1-yl)ethyl]-1H-indol-3-yl}methylene)-3-oxo-2,3-dihydro-1-benzofuran-5-yl]urea]
